Test [1] deals with NMDA (N-methyl-D-aspartate) receptors. Conditions: background; cited from earlier work.
For test [2], the target named is quisqualate receptor. Kind of test: 3H-AMPA binding (Test 1). Conditions: displacement of 50% of the specific binding of 3H-AMPA (5 nM), rat cerebral cortical membranes, 0° C., 30 min. An excerpt:
The quisqualate receptor binding activity of the compounds of the present invention can be illustrated by determining their capability for displacing radioactively labelled 2-amino-3hydroxy-5-methyl-4-isoxazolepropionic acid (AMPA) from the quisqualatee type receptors.
The displacement activity of the compounds may be shown by determining the IC50 value which represents the concentration (μg/ml) which causes a displacement of 50% of the specific binding of ^3 H-AMPA.
^3 H-AMPA binding (Test 1)
500 μl of thawed rat cerebral cortical membrane homogenate in Tris-HCl (30 mM), CaCl2 (2.5 mM) and KSCN (100 mM) pH 7.1 were incubated at 0° C. for 30 min. with 25μl ^3 H-AMPA (5 nM final concentration) and the test compound and buffer. Nonspecific binding was determined by incubation with L-glutamic acid (600 μM final concentration). The binding reaction was terminated by adding 5 ml of ice-cold buffer followed by filtration through Whatman GF/C glass fibre filters and 2×5 ml wash with ice-cold buffer. Bound radioactivity was measured by scintillation counting. IC50 was determined by Hill analysis of at least four concentrations of test compound.

The test system of test [3] is quisqualate receptor. In words: Antagonism of quisqualic acid induced 22Na+-release from striatal slices (Test 2). It counts as cell-based. Conditions: reduces quisqualic acid (2 μg/ml) stimulated 22Na+ efflux by 50%, rat striatal slices. As to the method:
The quisqualate antagonism is measured by determining the EC50 value which represents the concentration which reduces the rate of quisqualic acid stimulated sodium efflux by 50%.
Antagonism of quisqualic acid induced ^22 Na^+ -release (Test 2)
Slices from rat striatum were preincubated with ^22 Na^+ for 30 min. After the ^22 Na^+ loading period, the slices were successively and every minute transferred through a series of tubes, each containing 1.5 ml of a non-radioactive physiological solution saturated with O2, with the help of a basket shaped sieve. Quisqualic acid (2 μg/ml) was present in the last 5 tubes and the compound to be tested was present in the same 5 tubes plus 3 tubes before. The amount of radioactivity in each washout tube as well as that left in the slices at the end of the experiment was measured by scintillation counting. EC50 -values were calculated by Hill analysis from at least three different concentrations of test compound as the concentration of test compound which reduces the efflux rate of ^22 Na^+ -ions to 50% of the efflux rate in the absence of test compound.

Test [4] deals with NMDA receptor. Kind of test: Inhibition of NMDA stimulated 3H-GABA release from cultured cerebral cortex interneurons (Test 3). It counts as cell-based. Conditions: inhibits 50% of NMDA (3 μg/ml) induced 3H-GABA release, mouse cerebral cortex interneurons. An excerpt:
The NMDA antagonistic properties of the compounds is illustrated by determining their capability to antagonize NMDA stimulated ^3 H-GABA release from cultured mouse cortex neurons.
The NMDA antagonistic activity of the compounds may be shown by determining the IC50 value, which represents the concentration (μg/ml) which inhibits 50% of NMDA induced ^3 H-GABA release.
Inhibition of NMDA stimulated ^3 H-GABA release from cultured mouse cerebral cortex interneurons (Test 3) Release experiments are performed using the model described by Drejer et al. (Life Sci. 38, 2077 (1986)). To cerebral cortex interneurons cultured in petri dishes (30 mm) are added 100 μg/ml 3-vinyl-GABA one […] before the experiment in order to inhibit degradation of GABA in the neurons. 30 min before the experiment 5 μCi ^3 H-GAGA is added to each culture and after this preloading period the cells are washed twice with a HEPES (N-2 Hydroxyethylpiperazine-N'-2-ethanesulfonic acid) buffered saline (HBS) containing 10 mM HEPES, 135 mM NaCl, 5 mM KCl, 0.6 mM MgSO4, 1.0 mM CaCl2 and 6 mM D-glucose; pH 7 and placed in a superfusion system. This system consists of a peristaltic pump continuously delivering thermostated 37° C. superfusion medium from a reservoir to the top of a slightly-tilted petri dish. The cell monolayer at the bottom of the dish is covered with a piece of nylon mesh to facilitate dispersion of medium over the cell layer. The medium is continuously collected from the lower part of the dish and delivered to a fraction collector. Initially, the cells are superfused with HBS for 15 min (flow rate 2 ml/min). Then cells are stimulated for 30 sec every 4 min by changing the superfusion medium from HBS to a corresponding medium containing NMDA and antagonists according to the following scheme: […]
stimulation no. 1: 3 μg/ml NMDA stimulation no. 2: 3 μg/ml NMDA+0.3 μg/ml antagonist stimulation no. 3: 3 μg/ml NMDA+3 μg/ml antagonist
Test substances are dissolved in water or 48% ethanol. The final ethanol concentration in the assay must not exceed 0.1%.
The release of ^3 H-GABA in the presence of NMDA (stimulated relase in cpm) are corrected for the mean basal release (cpm) before and after the stimulation.
The stimulated release in the presence of antagonists are expressed relative to the stimulated release by NMDA alone and the IC50 value for the antagonist is calculated (the concentration (μg/ml) of the test substance which inhibits 50% of the NMDA induced ^3 H-GABA release) either from a dose response curve or from the formula: [formula] where Co is stimulated release in control assays and Cx is the stimulated release in the test assay (the calculation assumes normal mass-action interaction). 25-75% inhibition of the NMDA stimulation must be obtained, before calculation of IC50.

The subject of test [5] is kainate receptors. Conditions: background; cited from earlier work.
The test system of test [6] is quisqualate receptors. Conditions: background; cited from earlier work.

For the molecule `O=C(O)[C@@H]1CCCN[C@H]1C(=O)O` (relative stereo) [trans-2,3-PDA, trans-2,3-piperidine dicarboxylic acid], in test [1], the “agonist activity on NMDA receptors” value is on record as “strong to moderate agonist activity”.

With `O=[N+]([O-])c1cccc2c1c([N+](=O)[O-])cc1nc(O)c(O)nc12` [2,3-Dihydroxy-6,7-dinitrobenzo(f)quinoxaline], the “Test 1 IC50” value in test [2] stood at 0.06 µg/mL. Moreover, the “Test 2 EC50” value in test [3] stood at 2.8 µg/mL. In test [4], the “Test 3 IC50” value was determined as 0.3 µg/mL.

On to `O=[N+]([O-])c1cc2nc(O)c(O)nc2c2c([N+](=O)[O-])cccc12` [2,3-Dihydroxy-6,10-dinitrobenzo(f)quinoxaline], for which, in test [2], the “Test 1 IC50” value is 0.85 µg/mL. In addition, in test [4], the “Test 3 IC50” value stood at 0.97 µg/mL.

On to `O=[N+]([O-])c1cc2nc(O)c(O)nc2c2ccccc12` [2,3-Dihydroxy-6-nitrobenzo(f)quinoxaline], for which the “Test 1 IC50” value in test [2] is 0.69 µg/mL. The “Test 2 EC50” value in test [3] came to 14 µg/mL. In test [4], the “Test 3 IC50” value is 0.39 µg/mL.

`O=[N+]([O-])c1cc2nc(O)c(O)nc2c2cccnc12` [2,3-Dihydroxy-6-nitropyrido(2,3-f)quinoxaline]: in test [2], the “Test 1 IC50” value came out at 0.61 µg/mL. Further, the “Test 3 IC50” value in test [4] was 1.5 µg/mL.

Take `N[C@@H](CCC(=O)NCC(=O)O)C(=O)O` [3-glutamyl-glycine]: the “antagonism / selectivity at kainate receptors” value in test [5] is recorded as “some selectivity for kainate receptors”.

For `Nc1cc2nc(O)c(O)nc2c2ccccc12` [6-Amino-2,3-dihydroxybenzo(f)quinoxaline], the “Test 1 IC50” value in test [2] was 1.1 µg/mL. For the same molecule, the “Test 2 EC50” value in test [3] is 23 µg/mL.

`O=[N+]([O-])c1cccc2c(Br)cc3nc(O)c(O)nc3c12` [6-bromo-2,3-dihydroxy-10-nitrobenzo(f)quinoxaline]: the “Test 1 IC50” value in test [2] amounted to 9.2 µg/mL. Besides, the “Test 3 IC50” value in test [4] was 0.25 µg/mL.

With `O=[N+]([O-])c1cc2nc(O)c(O)nc2c2c1CCCC2` [7,8,9,10-Tetrahydro-2,3-dihydroxy-6-nitrobenzo(f)quinoxaline], the “Test 1 IC50” value in test [2] was determined as 0.17 µg/mL. For the same molecule, the “Test 3 IC50” value in test [4] is 0.092 µg/mL.

On to `Cc1onc(O)c1CC(N)C(=O)O` (stereo not drawn) [AMPA, 2-amino-3-hydroxy-5-methyl-4-isoxazolepropionic acid], for which the “agonist activity on quisqualate receptors” value in test [6] is “potent agonists”.

`N[C@H](CCCC(=O)O)C(=O)O` [D-2-amino-adipic acid]: the “antagonist activity on NMDA receptors” value in test [1] is “moderate antagonist activity”.

Turning to `N[C@H](CCCCCP(=O)(O)O)C(=O)O` [D-APH, 2-amino-7-phosphonoheptanoic acid], the “antagonist activity on NMDA receptors” value in test [1] is “most potent and selective antagonists”.

As to `N[C@H](CCCP(=O)(O)O)C(=O)O` [D-APV, 2-amino-5-phosphono-valeric acid], the “antagonist activity on NMDA receptors” value in test [1] is “most potent and selective antagonists”.

As for `N[C@H](CCC(=O)O)C(=O)O` [D-glutamic acid], the “agonist activity on NMDA receptors” value in test [1] was “strong to moderate agonist activity”.

As for `CCOC(=O)CCC(N)C(=O)OCC` (stereo not drawn) [GDEE, Glutamic acid diethyl esteer], in test [6], the “antagonist activity at quisqualate receptors” value is given as “selective but very weak antagonist”. Further, the “antagonism / selectivity at kainate receptors” value in test [5] is “relatively insensitive to antagonism”.

Turning to `N[C@H](C(=O)O)c1cc(=O)[nH]o1` [Ibotenic acid], the “agonist activity on NMDA receptors” value in test [1] is “strong to moderate agonist activity”.

Take `N[C@@H](CCC(=O)O)C(=O)O` [L-glutamic acid]: in test [6], the “agonist activity on quisqualate receptors” value is recorded as “potent agonists”.

As for `N[C@@H](CCS(=O)(=O)O)C(=O)O` [L-homocysteic acid], the “agonist activity on NMDA receptors” value in test [1] is “strong to moderate agonist activity”.

`N[C@H](CCC[C@H](N)C(=O)O)C(=O)O` [diaminopimelic acid]: the “antagonist activity on NMDA receptors” value in test [1] is given as “moderate antagonist activity”.

Consider `N[C@@H](Cn1oc(=O)[nH]c1=O)C(=O)O` [quisqualic acid], for which the “agonist activity on quisqualate receptors” value in test [6] was “activated selectively”.

The values above are taken from patent publication US4889855A, “Heterocyclic compounds and their preparation and use” (priority 1987, dated 1989).
